Here are results for 30 compounds from patent publication US20240425519A1, “NOVEL SPIROCYCLIC COMPOUNDS AS KLHDC2 LIGANDS” (University of Washington, priority 2021, published 2024).

In the first assay the target is KLHDC2 (Homo sapiens (Human), UniProt Q9Y2U9). Briefly: AlphaScreen competition assay for ligand binding to KLHDC2 (GST-KLHDC2 vs biotinylated 12 aa SelK degron peptide). Particulars: formula (II) compounds; 0.12 nM GST-KLHDC2, 1.7 nM biotinylated 12 aa SelK peptide; triplicate; read-out: KLHDC2 binding activities IC50. The source says: The following is a description of an assay for evaluating ligand binding to KLHDC2.
Sequence of KLHDC2 (Q9Y2U9 whole entry): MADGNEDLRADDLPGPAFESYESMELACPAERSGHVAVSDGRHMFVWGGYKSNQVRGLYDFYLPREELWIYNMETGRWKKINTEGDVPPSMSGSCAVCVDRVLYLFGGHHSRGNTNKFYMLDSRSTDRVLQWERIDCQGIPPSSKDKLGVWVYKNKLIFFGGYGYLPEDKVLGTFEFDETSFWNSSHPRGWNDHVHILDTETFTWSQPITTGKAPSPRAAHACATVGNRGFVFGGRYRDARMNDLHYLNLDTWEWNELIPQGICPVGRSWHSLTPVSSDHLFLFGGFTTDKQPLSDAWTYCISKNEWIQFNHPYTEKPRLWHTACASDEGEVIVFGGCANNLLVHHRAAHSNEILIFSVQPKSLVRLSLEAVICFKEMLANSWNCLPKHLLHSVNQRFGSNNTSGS
Amplified Luminescence Proximity Homogenous Assay (AlphaScreen) was used to monitor protein-protein interaction of two tagged components that are immobilized on beads. One component was GST-KLHDC2 (E3) and the other one was biotinylated-SelK peptide with a length of 12 amino acids (Substrate peptide). When the two components bind, they bring the Alpha beads in close proximity to each other that results in a luminescent signal.
AlphaScreen assays for determining and measuring protein-protein interactions were performed using EnSpire reader (PerkinElmer). GST-tagged KLHDC2 was attached to anti-GST AlphaScreen acceptor beads. Synthetic biotinylated 12 aa SelK degron peptide (Bio-Synthesis, Inc.) was immobilized to streptavidin-coated AlphaScreen donor beads. The donor and acceptor beads were brought into proximity by the interactions between the SelK peptide and KLHDC2. Excitation of the donor beads by a laser beam of 680 nm promotes the formation of singlet oxygen. When an acceptor bead is in close proximity, the singlet oxygen reacts with thioxene derivatives in the acceptor beads and causes the emission of 520-620 nm photons, which are detected as the binding signal. If the beads are not in close proximity to each other, the oxygen will return to its ground state and the acceptor beads will not emit light. Competition assays were performed in the presence of representative binding compounds, which were titrated at various concentrations.
The experiments were conducted with 0.12 nM of GST-KLHDC2 and 1.7 nM biotinylated 12 aa SelK peptide in the presence of 5 μg/ml donor and acceptor beads in a buffer of 25 mM HEPES, pH 7.5, 100 mM NaCl, 1 mM TCEP, 0.1% Tween-20, and 0.05 mg/ml Bovine Serum Albumin. The concentrations of the compounds used in competition assays ranged from 0.1 nM to 25 mM. The experiments were done in triplicate. IC50 values were determined using non-linear curve fitting of the dose response curves generated with Prism 4 (GraphPad).
As usually defined, the IC50 is the midpoint of a concentration-inhibition curve. For the compound `CN1CCN(C(=O)NCc2ccccc2)CC12CCC(=O)N(CC(=O)O)CC2` (stereo not drawn) [AC1051, 2-(4-(benzylcarbamoyl)-1-methyl-10-oxo-1,4,9-triazaspiro[5.6]dodecan-9-yl)acetic acid], the half-inhibitory concentration (IC50) stood at 45.9 µM. `CC(=O)N1CCC[C@@H]1C(=O)N1CCN(C)C2(CCC(=O)N(CC(=O)O)CC2)C1` (stereo partly drawn) [AC1072, 2-(4-(acetyl-D-prolyl)-1-methyl-10-oxo-1,4,9-triazaspiro[5.6]dodecan-9-yl)acetic acid]: the 50% inhibitory concentration (IC50) was 12.5 µM. `CN1CCN(C(=O)[C@H]2C[C@@H](NC(=O)OC(C)(C)C)C2)CC12CCC(=O)N(CC(=O)O)CC2` (stereo partly drawn) [AC1047, 2-(4-((1,3-trans)-3-((tert-butoxycarbonyl)amino)-cyclobutane-1-carbonyl)-1-methyl-10-oxo-1,4,9-triazaspiro[5.6]dodecan-9-yl)acetic acid]: the half-maximal inhibitory concentration (IC50) came out at 493 µM. Turning to `CN1CCN(C(=O)[C@H]2CCCN2C(=O)c2ccccc2)CC12CCC(=O)N(CC(=O)O)CC2` (stereo partly drawn) [AC1071, 2-(4-(benzoyl-D-prolyl)-1-methyl-10-oxo-1,4,9-triazaspiro[5.6]dodecan-9-yl)acetic acid], the IC50 came to 45.4 µM. Regarding `CN1CCN(C(=O)c2cnn(-c3ccccc3)c2)CC12CCC(=O)N(CC(=O)O)CC2` (stereo not drawn) [AC1064, 2-(1-methyl-10-oxo-4-(1-phenyl-1H-pyrazole-4-carbonyl)-1,4,9-triaza-spiro[5.6]dodecan-9-yl)-acetic acid], the IC50 is 148 µM. With `CN1CCN(C(=O)C2CC(F)(F)C2)CC12CCC(=O)N(CC(=O)O)CC2` (stereo not drawn) [AC1034, 2-(4-(3,3-difluorocyclo-butane-1-carbonyl)-1-methyl-10-oxo-1,4,9-triazaspiro[5.6]dodecan-9-yl)acetic acid], the IC50 was 295 µM. Still for that read-out and setting: with `CN1CCN(C(=O)C(C)(C)Oc2ccccc2)CC12CCC(=O)N(CC(=O)O)CC2` (stereo not drawn) [AC1046, 2-(1-methyl-4-(2-methyl-2-phenoxypropanoyl)-10-oxo-1,4,9-triazaspiro[5.6]-dodecan-9-yl)acetic acid] the figure was 202 µM; with `CN1CCN(C(=O)C2CC2)CC12CCC(=O)N(CC(=O)O)CC2` (stereo not drawn) [AC1052, 2-(4-(cyclopropanecar-bonyl)-1-methyl-10-oxo-1,4,9-triazaspiro[5.6]-dodecan-9-yl)acetic acid], 100 µM. Regarding `CN1CCN(C(=O)C2(O)CCCC2)CC12CCC(=O)N(CC(=O)O)CC2` (stereo not drawn) [AC1048, 2-(4-(1-hydroxycyclopen-tane-1-carbonyl)-1-meth-yl-10-oxo-1,4,9-triaza-spiro[5.6]dodecan-9-yl)-acetic acid], the IC50 amounted to 116 µM. Regarding `CN1CCN(C(=O)C2(c3ccc(F)cc3)CC2)CC12CCC(=O)N(CC(=O)O)CC2` (stereo not drawn) [AC1045, 2-(4-(1-(4-fluorophenyl)-cyclopropane-1-carbon-yl)-1-methyl-10-oxo-1,4,9-triazaspiro[5.6]-dodecan-9-yl)acetic acid], the IC50 turned out to be 348 µM. Turning to `CN1CCN(C(=O)[C@@H]2CCN2C(=O)OC(C)(C)C)CC12CCC(=O)N(CC(=O)O)CC2` (stereo partly drawn) [AC1065, 2-(4-((S)-1-(tert-butoxy-carbonyl)azetidine-2-carbonyl)-1-methyl-10-oxo-1,4,9-triazaspiro[5.6]-dodecan-9-yl)acetic acid], the concentration for half-maximal inhibition (IC50) was found to be 496 µM. Same read-out and setting: next, `CC(=O)N1CCC(C(=O)N2CCN(C)C3(CCC(=O)N(CC(=O)O)CC3)C2)CC1` (stereo not drawn) [AC1068, 2-(4-(1-acetylpiperidine-4-carbonyl)-1-methyl-10-oxo-1,4,9-triazaspiro-[5.6]dodecan-9-yl)acetic acid]: 191 µM; `CN1CCN(C(=O)C2CC(=O)N(Cc3ccccc3)C2)CC12CCC(=O)N(CC(=O)O)CC2` (stereo not drawn) [AC1066, 2-(4-(1-benzyl-5-oxo-pyrrolidine-3-carbonyl)-1-methyl-10-oxo-1,4,9-triazaspiro[5.6]dodecan-9-yl)acetic acid]: 65.9 µM; `CN1CCN(C(=O)C2CC2c2ccccc2)CC12CCC(=O)N(CC(=O)O)CC2` (stereo not drawn) [AC1032, 2-(1-methyl-10-oxo-4-(2-phenylcyclopropane-1-carbonyl)-1,4,9-triaza-spiro[5.6]dodecan-9-yl)-acetic acid]: 32 µM. As for `COC(C)(C(=O)N1CCN(C)C2(CCC(=O)N(CC(=O)O)CC2)C1)c1ccccc1` (stereo not drawn) [AC1063, 2-(4-(2-methoxy-2-phen-ylpropanoyl)-1-methyl-10-oxo-1,4,9-triazaspiro-[5.6]dodecan-9-yl)acetic acid], the IC50 worked out at 131 µM. On to `CN1CCN(C(=O)Nc2ccccc2)CC12CCC(=O)N(CC(=O)O)CC2` (stereo not drawn) [AC1050, 2-(1-methyl-10-oxo-4-(phenylcarbamoyl)-1,4,9-triazaspiro[5.6]dodecan-9-yl)acetic acid], for which the IC50 turned out to be 33.6 µM.

In the case of `CC(C(=O)N1CCN(C)C2(CCC(=O)N(CC(=O)O)CC2)C1)c1ccc(O)cc1` (stereo not drawn) [AC1062, 2-(4-(2-(4-hydroxyphen-yl)propanoyl)-1-methyl-10-oxo-1,4,9-triazaspiro-[5.6]dodecan-9-yl)acetic acid], the IC50 came to 19.8 µM. On to `CC(Cc1ccccc1)C(=O)N1CCN(C)C2(CCC(=O)N(CC(=O)O)CC2)C1` (stereo not drawn) [AC1033, 2-(1-methyl-4-(2-methyl-3-phenylpropanoyl)-10-oxo-1,4,9-triazaspiro[5.6]-dodecan-9-yl)acetic acid], for which the concentration for half-maximal inhibition (IC50) amounted to 56.4 µM.

Take `CN1CCN(C(=O)C2CN(Cc3ccccn3)C2)CC12CCC(=O)N(CC(=O)O)CC2` (stereo not drawn) [AC1069, 2-(1-methyl-10-oxo-4-(1-(pyridin-2-ylmethyl)azeti-dine-3-carbonyl)-1,4,9-triazaspiro[5.6]dodecan-9-yl)acetic acid]: the half-maximal inhibitory concentration (IC50) came to 4.6 µM.

The assay is the same for the next values; noted with them: formula (III) compounds; 0.12 nM GST-KLHDC2, 1.7 nM biotinylated 12 aa SelK peptide; triplicate; read-out: KLHDC2 binding activities IC50.
As for `CC(=O)N1CCc2nc(N3CCN(C)C4(CCC(=O)N(CC(=O)O)CC4)C3)ncc2C1` (stereo not drawn) [AC1030, 2-(4-(6-acetyl-5,6,7,8-tetra-hydropyrido[4,3-d]pyrimidin-2-yl)-1-methyl-10-oxo-1,4,9-triazaspiro[5.6]dodecan-9-yl)-acetic acid], the IC50 was 445 µM. On to `CN1CCN(c2nccc(C(=O)O)n2)CC12CCC(=O)N(CC(=O)O)CC2` (stereo not drawn) [AC1035, 2-(9-(carboxymethyl)-1-meth-yl-10-oxo-1,4,9-triazaspiro-[5.6]dodecan-4-yl)pyrimidine-4-carboxylic acid], for which the IC50 turned out to be 123 µM. As for `Cc1nc(N)nc(N2CCN(C)C3(CCC(=O)N(CC(=O)O)CC3)C2)c1Cl` (stereo not drawn) [AC1031, 2-(4-(2-amino-5-chloro-6-methylpyrimidin-4-yl)-1-methyl-10-oxo-1,4,9-triaza-spiro[5.6]dodecan-9-yl)acetic acid], the half-inhibitory concentration (IC50) is 389 µM.

Still in this assay, the particulars now being: formula (IV) compounds; 0.12 nM GST-KLHDC2, 1.7 nM biotinylated 12 aa SelK peptide; triplicate; read-out: KLHDC2 binding activities IC50.
As for `C[C@H](C(=O)N1CCC[C@]2(CCN(CC(=O)O)C(=O)CO2)C1)c1ccccc1` [AC0978, 2-((S)-9-oxo-2-((S)-2-phenyl-propanoyl)-7-oxa-2,10-diaza-spiro[5.6]dodecan-10-yl)acetic acid], the IC50 was found to be 22.1 µM. The same measure, in the same setting: next, `C[C@@H](C(=O)N1CCCC2(CCN(CC(=O)O)C(=O)CO2)C1)c1ccccc1` (stereo partly drawn) [AC1028, 2-(9-oxo-2-((R)-2-phenylpro-panoyl)-7-oxa-2,10-diaza-spiro[5.6]dodecan-10-yl)acetic acid]: 39.6 µM; `O=C(O)CN1CCC2(CCCN(C(=O)C3CCCC3)C2)OCC1=O` (stereo not drawn) [AC903, 2-(2-(cyclopentanecarbonyl)-9-oxo-7-oxa-2,10-diazaspiro-[5.6]dodecan-10-yl)acetic acid]: 40.1 µM; `C[C@H](C(=O)N1CCC[C@@]2(CCN(CC(=O)O)C(=O)CO2)C1)c1ccccc1` [AC0979, 2-((R)-9-oxo-2-((S)-2-phenyl-propanoyl)-7-oxa-2,10-diaza-spiro[5.6]dodecan-10-yl)acetic acid]: 63.7 µM. On to `O=C(O)CN1CCC2(CCCN(c3ccnc(N4CCC(O)C4)n3)C2)OCC1=O` (stereo not drawn) [AC935, 2-(2-(2-(3-hydroxypyrrolidin-1-yl)pyrimidin-4-yl)-9-oxo-7-oxa-2,10-diazaspiro[5.6]-dodecan-10-yl)acetic acid], for which the IC50 was 47.5 µM.

In the case of `O=C(O)CN1CCC2(CCCN(C(=O)C3CCC3)C2)OCC1=O` (stereo not drawn) [AC904, 2-(2-(cyclobutanecarbonyl)-9-oxo-7-oxa-2,10-diazaspiro-[5.6]dodecan-10-yl)acetic acid], the half-inhibitory concentration (IC50) worked out at 51 µM. For the compound `CC(C(=O)N1CCCC2(CCN(CC(=O)O)C(=O)CO2)C1)c1ccccc1` (stereo not drawn) [AC890, 2-(9-oxo-2-(2-phenylpropano-yl)-7-oxa-2,10-diazaspiro[5.6]-dodecan-10-yl)acetic acid], the IC50 amounted to 50 µM. The same measure, in the same setting: with `Cc1nccc(N2CCCC3(CCN(CC(=O)O)C(=O)CO3)C2)n1` (stereo not drawn) [AC947, 2-(2-(2-methylpyrimidin-4-yl)-9-oxo-7-oxa-2,10-diazaspiro-[5.6]dodecan-10-yl)acetic acid] the figure was 1390 µM.
